{
  "source": "patent US20010046684A1",
  "about": "“Methods of structure-based drug design using MS/MNR” (priority 2000, published 2001)",
  "key": {"MMP-1 [1]": {"molecular_target": "T1, MMP-1 (Homo sapiens, UniProt P03956)", "T1 sequence (P03956 100-469)": "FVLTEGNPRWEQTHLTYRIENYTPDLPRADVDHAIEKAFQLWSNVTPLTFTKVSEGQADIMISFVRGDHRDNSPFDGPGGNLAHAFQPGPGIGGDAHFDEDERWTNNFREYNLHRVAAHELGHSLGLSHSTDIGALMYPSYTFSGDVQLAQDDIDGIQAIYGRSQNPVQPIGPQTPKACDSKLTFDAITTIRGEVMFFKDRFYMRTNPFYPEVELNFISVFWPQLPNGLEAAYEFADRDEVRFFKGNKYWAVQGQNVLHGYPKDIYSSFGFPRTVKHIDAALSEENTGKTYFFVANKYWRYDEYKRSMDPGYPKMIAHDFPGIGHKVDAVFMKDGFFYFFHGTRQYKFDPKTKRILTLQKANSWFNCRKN", "details": "Inhibitors of MMP-1; compounds having known affinities, previously tested; cited from earlier work"}, "MMP-1 [2]": {"molecular_target": "T1, MMP-1", "assay": "Gel-filtration (Sephedex G25) / ESI mass spectral analysis of binding to MMP-1", "details": "1 mM compound, 0.1 mM MMP-1, pH 6.5, room temperature, 30 minutes; unbound compound alone is retained", "method": "1 mM each of compounds 1, 2 and 3 (Table 1) were dissolved in DMSO and each incubated alone or in the presence of MMP-1 at a 0.1 mM in a buffer consisting of 20 mM Tris, 100 mM NaCl, 5 mM CaCl2, 0.1 mM ZnCl2, 2 mM NaN3 and 3.5 mM DTT at pH 6.5 at room temperature for 30 minutes. The final concentration of DMSO in the MMP-1:compound mixture was 5%. A total volume of 25 μl of each sample was loaded on a Sephedex G25 column in a Millipore multiscreen filtration system composed of a 0.65 μm hydrophilic durapore filter. The samples were eluted using centrifugation (15,000×g for 3 minutes). Samples were collected and analyzed by mass spectroscopy using automated ESI/MS methods in both positive and negative ionization modes with a Micromass LCT quadrapole time of flight mass spectrometer and Quattro I triple-quadrapole mass spectrometer each equipped with a Gilson 215 liquid handler."}, "MMP-1 [3]": {"molecular_target": "T2, MMP-1 (Homo sapiens, UniProt P03956)", "T2 construct": "made in house", "T2 sequence (P03956 101-269 limits assumed)": "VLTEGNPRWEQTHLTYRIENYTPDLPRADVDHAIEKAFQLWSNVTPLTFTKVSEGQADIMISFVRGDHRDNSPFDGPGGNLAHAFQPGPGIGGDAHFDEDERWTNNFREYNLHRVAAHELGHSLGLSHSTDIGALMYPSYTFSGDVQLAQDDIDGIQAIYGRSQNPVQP", "assay": "2D 1H-15N HSQC NMR chemical shift perturbation of 15N-MMP-1", "assay_type": "binding", "details": "0.2 mM 15N-MMP-1, compound 0.2-4.0 mM, pH 6.5, 35° C.", "method": "MMP-1 was labeled as described in Moy, J. Biomol. NMR, Vol. 10: 9-19 (1997). […] The 2D ^1H—^15N HSQC spectra were recorded with 256 complex points in t1, 2048 real points in t2, and 192 scans per increment. Spectra windows for t1 and t2 were 1723.7 and 8064.5 Hz, respectively, with the carrier at 4.75 and 115.2 ppm, respectively. Data were processed and analyzed using NMRPipe, NMRWish [F. Delaglio, S. Grzesiek, G. W. Vuister, G. Zhu, J. Pfeifer, and A. Bax J. Biomol. NMR 6, 277 (1995). ] and PIPP [D. S. Garrett, R. Powers, A. M. Gronenborn, and G. M. Clore J. Magn. Reson. 95, 214-20 (1991).] on a Sun Ultra 10 workstation. […] (FIG. 4A, 4B, 4C), i.e. stronger binding contributes to greater perturbations and weaker binding to less perturbations."}},
  "data": [
    {"compound": "COc1ccc(S(=O)(=O)N(Cc2ccccc2)c2ccc(C)cc2C(=O)NO)cc1", "note": "[Compound 4, 2-[Benzyl-(4-methoxy-benzenesulfonyl)-amino]-N-hydroxy-5-methyl-benzamide]", "values": [
      {"measurement": "IC50", "setting": "MMP-1 [1]", "result": 408, "unit": "nM"}
    ]},
    {"compound": "COc1ccc(S(=O)(=O)N(CC(=O)O)c2c(C)cccc2C(=O)NO)cc1", "note": "[Compound 3, [(2-Hydroxycarbamoyl-6-methyl-phenyl)-(4-methoxy-benzenesulfonyl)-amino)-acetic acid]", "values": [
      {"measurement": "IC50", "setting": "MMP-1 [1]", "result": 89000, "unit": "nM"},
      {"measurement": "Elution of compound through size-exclusion column in presence of MMP-1 (binding detected by ESI/MS)", "setting": "MMP-1 [2]", "result": "compound bound to MMP-1 is eluted"},
      {"measurement": "Chemical shift perturbations in 2D 1H-15N HSQC spectrum of MMP-1", "setting": "MMP-1 [3]", "result": "induce chemical shift perturbations for residues in the vicinity of the catalytic Zn and S1′ pocket in the MMP-1 active site"}
    ]},
    {"compound": "COc1ccc(S(=O)(=O)N(Cc2cccnc2)c2c(C(=O)O)cccc2C(=O)NO)cc1", "note": "[Compound 2, N-Hydroxy-2-[(4-methoxy-benzenesulfonyl)-pyridin-3-ylmethyl-amino]-isophthalamic acid]", "values": [
      {"measurement": "IC50", "setting": "MMP-1 [1]", "result": 9900, "unit": "nM"},
      {"measurement": "Elution of compound through size-exclusion column in presence of MMP-1 (binding detected by ESI/MS)", "setting": "MMP-1 [2]", "result": "compound bound to MMP-1 is eluted"},
      {"measurement": "Chemical shift perturbations in 2D 1H-15N HSQC spectrum of MMP-1", "setting": "MMP-1 [3]", "result": "induce chemical shift perturbations for residues in the vicinity of the catalytic Zn and S1′ pocket in the MMP-1 active site"}
    ]},
    {"compound": "COc1ccc(S(=O)(=O)C(CCC(C)C)(Cc2cccnc2)C(=O)NO)cc1", "note": "(centres unmarked) [Compound 7, 2-(4-Methoxy-benzenesulfonyl)-5-methyl-2-pyridin-3-ylmethyl-hexanoic acid hydroxyamide]", "values": [
      {"measurement": "IC50", "setting": "MMP-1 [1]", "result": 760, "unit": "nM"}
    ]},
    {"compound": "3-[4-(2-Azepan-1-yl-ethoxy)-phenyl]-N-hydroxy-2-(4-methoxy-benzenesulfonyl)-2-propionamide [Compound 13]", "values": [
      {"measurement": "IC50", "setting": "MMP-1 [1]", "result": 540, "unit": "nM"}
    ]},
    {"compound": "Cc1cc(Br)cc(C(=O)NO)c1N(C)S(=O)(=O)c1ccc2ccccc2c1", "note": "[Compound 11, 5-Bromo-N-hydroxy-3-methyl-2-[methyl-(naphthalene-2-sulfonyl)-amino]-benzamide]", "values": [
      {"measurement": "IC50", "setting": "MMP-1 [1]", "result": 1100, "unit": "nM"}
    ]},
    {"compound": "COc1ccc(S(=O)(=O)N(Cc2cccnc2)[C@@H](C(=O)NO)C(C)C)cc1", "note": "[Compound 1, N2-(4-Methoxy-benzenesulfonyl)-N2-[(pyridin-3-yl)methyl]-N-hydroxy-D-valinamide]", "values": [
      {"measurement": "Elution of compound through size-exclusion column in presence of MMP-1 (binding detected by ESI/MS)", "setting": "MMP-1 [2]", "result": "compound bound to MMP-1 is eluted"}
    ]}
  ]
}
